Results reported in patent US7745152B2, “Method for determining genotoxicity” (priority 2004, dated 2010).
Several values for one entry are separate records, joined by “and”; a condition that tells them apart may be missing. Equal entries are not always repeated.

Columns and labels:
C2C12 cells [1] = conditions: mouse
C2C12 cells [2] = test: Genomic assay: gene expression analysis (Affymetrix Murine Genome MOE430) in C2C12 cells induced to differentiate
Procedure: (§1) Three independent replicates were generated for each drug and time point. Sample processing was carried out according to protocols described in the Affymetrix Expression Analysis Technical Manual. Briefly, total RNA was isolated from cells by the acid guanidinium thiocyanate-phenol-chloroform extraction method (Trizol®, Invitrogen, Carlsbad, Calif.). Twice purified poly(A+) RNA was isolated and reverse transcribed using a T7-promoter coupled oligo(dT) primer, followed by in vitro transcription. The labeled samples were applied to the Affymetrix Murine Genome MOE430 set and were hybridized overnight at 45° C./60 rpm, washed using a FS450 Fluidics station, and scanned on a GS3000 scanner. The resulting image files were analyzed using Affymetrix software (Microarray Analysis Suite version 5.0).
(§2) To measure the effect of drug treatment on cellular gene expression, replicate data obtained from each drug and time point were compared with replicates for vehicle-matched controls using the Student t-test. The gene expression levels were Log transformed before applying the Student t-test. The fold change of the average expression level between the control and drug-treated cells was also calculated. […] A gene was considered expressed if the Affymetrix software determined that the gene was “present” in two out of the three replicates. This ensured that true expression changes were identified, and could be distinguished from background variability. Second, the calculated expression change for each of five tested drugs was at least 2 fold, and the calculated p-value for the expression change using the Student t-test was less than 0.01.

C2C12 cells [3] = tested on: C2C12 cells
Procedure: as §1, §2

C2C12 cells [4] = test: C2C12 myogenic differentiation after MMS exposure with siRNA transfection; conditions: 75 μM MMS, 24 hours, then differentiation media, 72 hours

SMILES: COS(C)(=O)=O [Methanesulfonate methyl ester (MMS), Methanesulfonate methyl ester]
- Lowest effective dose (C2C12 cells [1]): 0.002 µg/mL
- Fold change in expression: 0610013D04 Rik, RIKEN cDNA (C2C12 cells [2]): 2.60 fold
- Fold change in expression: 1600013K19 Rik, RIKEN cDNA (C2C12 cells [2]): 0.62 fold
- Fold change in expression: 2610005B21 Rik, RIKEN cDNA (C2C12 cells [2]): 0.53 fold
- Fold change in expression: 2610019I03 RIK, RIKEN cDNA (C2C12 cells [2]): 0.43 fold
- Fold change in expression: 2610509G12 Rik, RIKEN cDNA (C2C12 cells [2]): 0.55 fold
- Fold change in expression: 2810417H13 Rik, RIKEN cDNA (C2C12 cells [2]): 0.48 fold
- Fold change in expression: 4833427G06 Rik, RIKEN cDNA (C2C12 cells [2]): 3.70 fold
- Fold change in expression: 6530401L14 Rik, RIKEN cDNA (C2C12 cells [2]): 0.39 fold
- Fold change in expression: 9030617O03 Rik, RIKEN cDNA (C2C12 cells [2]): 2.40 fold
- Fold change in expression: Anxa8, Annexin A8 (C2C12 cells [2]): 2.50 fold
- Fold change in expression: Asflb, ASF1 anti-silencing function 1 homolog B (Saccharomyces) (C2C12 cells [2]): 0.47 fold
- Fold change in expression: Birc5, Baculoviral IAP repeat-containing 5 (C2C12 cells [2]): 0.51 fold
- Fold change in expression: Brca1, Breast cancer 1 (C2C12 cells [2]): 0.47 fold
- Fold change in expression: Calmbp1, Calmodulin binding protein 1 (C2C12 cells [2]): 0.30 fold
- Fold change in expression: Capn6, Calpain 6 (C2C12 cells [2]): 0.60 fold
- Fold change in expression: Ccna2, Cyclin A2 (C2C12 cells [2]): 0.46 fold
- Fold change in expression: Ccng1, Cyclin G1 (C2C12 cells [2]): 2.40 fold
- Fold change in expression: Cilp, Cartilage intermediate layer pro (C2C12 cells [2]): 0.57 fold
- Fold change in expression: Cks2, CDC28 protein kinase regulatory subunit 2 (C2C12 cells [2]): 0.59 fold
- Fold change in expression: D4Ertd421e, DNA segment, Chr 4, ERATO Doi 421, expressed (C2C12 cells [2]): 0.44 fold
- Fold change in expression: Dda3-pending, Differential display and activated by p53 (C2C12 cells [2]): 3.70 fold
- Fold change in expression: E2f7, E2F transcription factor 7 (C2C12 cells [2]): 0.55 fold
- Fold change in expression: E030024M05 Rik, RIKEN cDNA (C2C12 cells [2]): 2.00 fold
- Fold change in expression: E130315B21 Rik, RIKEN cDNA (C2C12 cells [2]): 0.64 fold
- Fold change in expression: Fbxo5, f-box only protein 31 (C2C12 cells [2]): 0.42 fold
- Fold change in expression: Foxm1, Forkhead box M1 (C2C12 cells [2]): 0.41 fold
- Fold change in expression: Gmnn, Geminin (C2C12 cells [2]): 0.54 fold
- Fold change in expression: Gnpi, Glucosamine-6-phosphate deaminase (C2C12 cells [2]): 1.60 fold
- Fold change in expression: Hmgb2, High mobility group box 2 (C2C12 cells [2]): 0.56 fold
- Fold change in expression: Hmgb3, High mobility group box 3 (C2C12 cells [2]): 0.45 fold
- Fold change in expression: Hmmr, Hyaluronan mediated motility receptor (RHAMM) (C2C12 cells [2]): 0.36 fold
- Fold change in expression: Kifl1, Kinesin 11 (C2C12 cells [2]): 0.43 fold
- Fold change in expression: Lek1, Leucine, glutamic acid, lysine family 1 protein (C2C12 cells [2]): 0.36 fold
- Fold change in expression: Ly6e, Lymphocyte antigen 6 complex, locus E (C2C12 cells [2]): 1.80 fold
- Fold change in expression: M-phosph1, M-phase phosphoprotein (C2C12 cells [2]): 0.27 fold
- Fold change in expression: MGC:32192, Mus musculus cDNA clone MGC: 32192 IMAGE: 5006129 (C2C12 cells [2]): 0.46 fold
- Fold change in expression: Mad2l1, MAD2 (mitotic arrest deficient, homolog)-like 1 (yeast) (C2C12 cells [2]): 0.43 fold
- Fold change in expression: Mad3, Max dimerization protein 3 (C2C12 cells [2]): 0.52 fold
- Fold change in expression: Mcm3, Minichromosome maintenance deficient 3 (Saccharomyces) (C2C12 cells [2]): 0.56 fold
- Fold change in expression: Mcmd4, Minichromosome maintenance deficient 4 homolog (C2C12 cells [2]): 0.57 fold
- Fold change in expression: Mki67, Antigen identified by MAb Ki67 (C2C12 cells [2]): 0.31 fold
- Fold change in expression: Mmhead, Mus musculus 15 day embryo head cDNA clone (C2C12 cells [2]): 3.00 fold
- Fold change in expression: Nos3, Nitric oxide synthase 3, endothelial cell (C2C12 cells [2]): 1.90 fold
- Fold change in expression: Np95, Nuclear protein 95 (C2C12 cells [2]): 0.41 fold
- Fold change in expression: Nusap1, Nucleolar and spindle associated protein 1 (C2C12 cells [2]): 0.48 fold
- Fold change in expression: Osbp16, Oxysterol binding protein-like 6 (C2C12 cells [2]): 2.20 fold
- Fold change in expression: Pbk, PDZ binding kinase (C2C12 cells [2]): 0.46 fold
- Fold change in expression: Pcna, Proliferating cell nuclear antigen (C2C12 cells [2]): 0.60 fold
- Fold change in expression: Phex, Phosphate regulating neutral endopeptidase (X chromosome) (C2C12 cells [2]): 2.20 fold
- Fold change in expression: Plf, Proliferin (C2C12 cells [2]): 2.60 fold
- Fold change in expression: Pola1, DNA polymerase alpha 1, 180 kDa (C2C12 cells [2]): 0.37 fold
- Fold change in expression: Prc1, Protein regulator of cytokinesis 1 (C2C12 cells [2]): 0.44 fold
- Fold change in expression: Prelp, Proline arginine-rich end leucine-rich repeat (C2C12 cells [2]): 0.19 fold
- Fold change in expression: Prim1, DNA primase, p49 subunit (C2C12 cells [2]): 0.51 fold
- Fold change in expression: Rad51ap1, RAD51-associated protein 1 (C2C12 cells [2]): 0.45 fold
- Fold change in expression: Rbl1, Retinoblastoma-like 1 (p107) (C2C12 cells [2]): 0.59 fold
- Fold change in expression: Serpine1, Ser (or Cys) proteinase inhibitor, clade E, member 1 (C2C12 cells [2]): 0.58 fold
- Fold change in expression: Sesn2, Sestrin 2 (C2C12 cells [2]): 5.30 fold
- Fold change in expression: Shcbp1, Shc SH2-domain binding protein 1 (C2C12 cells [2]): 0.37 fold
- Fold change in expression: Slc19a2, Solute carrier family 19 (thiamine transporter), member 2 (C2C12 cells [2]): 2.70 fold and 2.30 fold
- Fold change in expression: Slc35a5, Solute carrier family 35, member A5 (C2C12 cells [2]): 2.60 fold
- Fold change in expression: Smc2l1, SMC2 structural maintenance of chromosomes 2-like 1 (C2C12 cells [2]): 0.49 fold
- Fold change in expression: Stk18, Serine/threonine kinase 18 (C2C12 cells [2]): 0.49 fold
- Fold change in expression: Tacc3, Transforming, acidic coiled-coil containing protein 3 (C2C12 cells [2]): 0.48 fold
- Fold change in expression: Tagln, Transgelin (smooth muscle 22 protein) (C2C12 cells [2]): 0.47 fold
- Fold change in expression: Tk1, Thymidine kinase 1 (C2C12 cells [2]): 0.46 fold
- Fold change in expression: Top2a, Topoisomerase (DNA) II alpha (C2C12 cells [2]): 0.37 fold
- Fold change in expression: Trp53inp1, Transformation related protein, 53 inducible nuclear protein 1 (C2C12 cells [2]): 2.90 fold
- Fold change in expression: Usp30, Ubiquitin specific protease 30 (C2C12 cells [2]): 3.70 fold
- Fold change in expression: Wig1, Wild-type p53-induced gene 1 (C2C12 cells [2]): 2.40 fold
- Fold change in expression: Ephx1, Epoxide hydrolase 1 (microsomal xenobiotic hydrolase) (C2C12 cells [3]): 2.10 fold
- Fold change in expression: Hgf, Hepatocyte growth factor (scatter factor) (C2C12 cells [3]): 2.20 fold
- C2C12 cell differentiation into myotubes after genotoxin exposure (C2C12 cells [4]): completely inhibited
